{"source": "patent US20250090629A1", "about": "“ALLEVIATING DRUG NEPHROTOXICITY” (The Trustees of Indiana University, priority 2021, published 2025)", "key": {"[1]": {"system": "fluid phase and Megalin mediated clathrin mediated endocytosis in S1 and non-S1 proximal tubule segments", "assay": "Intra-vital 2-photon quantification of proximal tubule uptake of fluorescent endocytic markers after RAP or vehicle", "assay_type": "in vivo, rat", "protocol": "Rats were given either RAP or saline vehicle followed by a bolus containing a fluid phase endocytic marker (10,000 MW Cascade Blue Dextra, CB-dex) and a receptor mediated uptake marker (Texas Red Rat Serum Albumin, Rat Albumin). […] The results of this experiment are illustrated in FIG. 3. […] Ten minutes later, a bolus of Texas Red rat serum albumin (TR-RSA) and 10 kDa Cascade Blue dextran was given. […] Images collected from these studies at approximately 15, 30, and 60 minutes post initial infusion were quantified for TR-RSA and 10 kDa dextran uptake in either vehicle or RAP treated rats, in both S1 and non-S1 proximal tubule segments. Values were reported as normalized fluorescence, with the values normalized to the highest average value in the study group. […] The differences between vehicle and RAP treated were significant at all three time points studied and in both the S1 and non-S1 proximal tubule segments. […] The lower glomerular sieving coefficient of the RSA results in less RSA filtration and this a slower, protracted uptake that appears linear over time, with the S1 segment having the greatest accumulation."}, "[2]": {"system": "fluid phase and Megalin mediated clathrin mediated endocytosis in S1 and non-S1 proximal tubule segments", "assay": "Intra-vital 2-photon quantification of proximal tubule uptake of fluorescent endocytic markers after RAP or vehicle", "assay_type": "in vivo, rat", "remark": "listed apart in the source"}, "[3]": {"system": "uninephrectomy chronic kidney disease model in Munich Wister Fromter rats", "assay": "Gentamicin induced nephrotoxicity in uninephrectomy chronic kidney disease rat model, with or without RAP", "details": "for Serum Cr: daily gentamicin 100 mg/kg intraperitoneal with RAP 40 mg/kg intravenous, p<0.01 vs without RAP; for Urinary protein: CKD pretreatment baseline 221±40", "protocol": "Rats with a Chronic Kidney Disease (CKD) background were given either saline or 40 mg/kg RAP. […] Serum creatinine, an indicator of renal function, was measured in both rat populations at day 0, 3, 4, 5, and 6."}, "[4]": {"details": "RAP vs saline vehicle, 15', 30', 60' post bolus, S1 and non-S1 segments, FIG. 3"}, "[5]": {"details": "S1 segment, 60 minutes post initial bolus infusion, RAP 40 mg/Kg, FIG. 4B"}, "[6]": {"details": "normal rats, over 60 minutes, RAP 40 mg/kg intravenous"}}}
{"substance": "RAP: 39 kD protein, molecular chaperone for LDL receptor-related proteins such as Megalin; endocytosis inhibitor; SEQ ID NO 1-3 (human, rat, mouse)", "values": [{"measurement": "10,000 MW Cascade Blue Dextran (CB-dex) proximal tubule uptake and accumulation", "setting": "[1]; [4]", "value": "reduction"}, {"measurement": "Texas Red Rat Serum Albumin proximal tubule uptake and accumulation", "setting": "[1]; [4]", "value": "reduction"}, {"measurement": "10 kDa dextran accumulation in single plane images", "setting": "[1]; [5]", "value": "only faint accumulation"}, {"measurement": "TR-RSA uptake in single plane images", "setting": "[1]; [5]", "value": "virtually no uptake"}, {"measurement": "Reduction of 10 kDa Cascade Blue dextran uptake vs vehicle", "setting": "[1]; S1 segment, RAP 40 mg/Kg, FIG. 4C", "value": "over 5 fold"}, {"measurement": "RSA uptake (normalized fluorescence) compared to vehicle treated rats", "setting": "[1]; about 15, 30 and 60 minutes, both S1 and non-S1 proximal tubule segments, FIG. 4E, 4F", "value": "significantly reduced"}, {"measurement": "Reduction of 10 kDa Cascade Blue dextran uptake vs vehicle", "setting": "[1]; non-S1 proximal tubule segments, RAP 40 mg/Kg, FIG. 4D", "value": 2, "unit": "fold"}, {"measurement": "Reversibility of the reduction of S1 proximal tubule uptake", "setting": "[1]; normal rats", "value": "rapid fully reversible"}, {"measurement": "Reduction of S1 proximal tubule albumin uptake", "setting": "[1]; [6]", "value": 80, "unit": "%"}, {"measurement": "Reduction of S1 proximal tubule dextran uptake", "setting": "[1]; [6]", "value": 67, "unit": "%"}, {"measurement": "Nature of the inhibition of endocytosis", "setting": "[1]; without causing lasting effects on kidney function", "value": "temporary and reversible"}, {"measurement": "Texas Red Gentamicin accumulation (average fluorescence intensity)", "setting": "[2]; RAP 40 mg/kg vs saline vehicle, then single bolus of Texas Red Gentamicin, S1 and non-S1 proximal tubule segments, FIG. 2", "value": "Decreased"}, {"measurement": "Reduction of S1 proximal tubule gentamicin uptake", "setting": "[2]; [6]", "value": 62, "unit": "%"}, {"measurement": "Serum creatinine (indicator of renal function), change over time", "setting": "[3]; CKD rats, RAP 40 mg/kg plus gentamicin 100 mg/kg intraperitoneal daily for five days, day 0, 3, 4, 5, 6, FIG. 1", "value": "did not exhibit the same increase in serum creatinine"}, {"measurement": "Serum Cr", "setting": "[3]; day 5", "value": "1.4 ± 0.5", "unit": "mg/dL"}, {"measurement": "Serum Cr", "setting": "[3]; day 6", "value": "1.5 ± 0.5", "unit": "mg/dL"}, {"measurement": "24-hour creatinine clearance", "setting": "[3]; gentamicin with RAP, CKD pretreatment baseline 0.91=0.22 ml/min", "value": "0.49 ± 0.16", "unit": "mL/min"}, {"measurement": "Urinary protein", "setting": "[3]; gentamicin with RAP", "value": 488, "unit": "mg/ml/100 μm wt"}]}
{"substance": "gentamicin [reference compound]", "values": [{"measurement": "Urinary protein", "setting": "[3]; gentamicin without RAP", "value": "2,512 mg/ml/100 μm wt"}]}
